Results taken from PMC4696656, “Insights into the Mechanism of Action of Bactericidal Lipophosphonoxins” (PLoS ONE, 2015).

Assay: Stability at different pH (LC-MS)
Type: physicochemical
Settings: pH 0.18, 5.00 and 8.80; 50 μM and 500 μM; room temperature and 37°C; 24 hours
Procedure: Stability experiments were carried out at two concentrations and three pH values. Concentrations were 500 μmol/l (50 μl of 10 mM stock solution were dissolved in buffers of specific pH to a final volume of 1 ml) and 50 μmol/l (10 μl of stock solution were dissolved in buffers of specific pH to a final volume of 2 ml); pH: 0.18 (0.5 M HCl), 5 (0.1M NH4Ac adjusted with acetic acid), and 8.8 (0.1M NH4Ac adjusted with NaOH). The experiments were conducted at room temperature and 37°C, respectively. Samples were injected onto HPLC machine at different time points to assess the levels of decomposition. Time points: 0.5; 1; 3.5; 24 hrs. HPLC analytical parameters: Method: 0–100% B in 5 min, 100% C in 15 min, hold to 20 min. A = 25 mM NH4Ac, B = 25 mM NH4Ac in 50% MeCN, C = MeCN. Column: PFP, 100 x 4.6 mm, 3 um. Injection: 10 μl for 500 μM. Injection: 50 μl for 50 μM. Detection: PDA 210–400 nm; MS TIC 200–800 m/z.

CCCCCCCCCCCCCCCCOP(=O)(CCN1C[C@@H](O)[C@H](O)C1)OC[C@H]1O[C@@H](n2ccc(=O)[nH]c2=O)[C@H](O)[C@@H]1O (stereo partly shown) [DR5026]
stability (decomposition by LC-MS): no detectable decomposition
